Experiments:
Format in all cases: in vivo
rice (cultivar: Jikkoku) = test: Barrier to growth of rice (phytotoxicity, Example 18); conditions: untreated plant length set as 100; 0.2 mg/mL acetone solution diluted 10-fold, 0.25 mL per 1 mL of soil; first leaf stage; comparative compounds (Table 38)
Description: The acetone solutions of each example compound and compounds described in the prior art documents shown in the below-mentioned Table 38 (hereinafter, referred to as compounds of Comparative Examples 1 to 5, respectively) were prepared such that the content thereof became 0.2 mg/mL, and then diluted to 10-fold with water to be subjected to conducting test. 0.25 mL of the diluted solution per 1 mL of the soil was made to be absorbed in the soil. Then, rice seeds (cultivar: Jikkoku) subjected to forcing to germination were seeded in the soil to be cultivated in plant cultivation chambers. The plant length of the rice grown to the first leaf stage was measured, and the ratio of the plant length, relative to the untreated plant length set as 100, (hereinafter, referred to as “the ratio of plant length relative to untreated plant length”) was calculated. The presence or absence of the barrier to growth was determined from the calculated ratio.

Pyricularia oryzae [1] = test: whole plant or invertebrate; conditions: soil, read-out: Control value (number of lesions at the second leaf)
Pyricularia oryzae [2] = test: whole plant or invertebrate; conditions: foliar, read-out: Control value (number of lesions at the second leaf)

Row | Structure (SMILES) | Ratio of plant length relative to untreated plant length (rice (cultivar: Jikkoku)) | pest or weed control at 10 µg/mL (Pyricularia oryzae [1]) [%] | pest or weed control at 200 ppm (Pyricularia oryzae [2]) [%] | pest or weed control at 25 ppm (Pyricularia oryzae [2]) [%]
1 | O=C(O)c1cc(Cl)nc(Cl)c1 [Comparative Example 1] | 49 |  |  | 
2 | C#CCOC(=O)c1cc(Cl)nc(Cl)c1 [Comparative Example 2] | 52 |  |  | 
3 | O=C(NCCc1ccccc1)c1cc(Cl)nc(Cl)c1 [Comparative Example 3] | 45 |  |  | 
4 | O=C(COC(=O)c1cc(Cl)nc(Cl)c1)c1ccccc1 [Comparative Example 4] | 64 |  |  | 
5 | O=C(OCc1ccc(Cl)nc1)c1cc(Cl)nc(Cl)c1 [Comparative Example 5] | 66 |  |  | 
6 | O=C(Nc1ccc2c(c1)CCCC2)c1cc(F)nc(F)c1F [Example 1-3] |  | ≥ 80 | ≥ 80 | 
7 | O=C(Nc1nccs1)c1cc(F)nc(F)c1F [Example 1-18] |  | ≥ 80 | ≥ 80 | 
8 | O=C(Nc1cc(Cl)c(Cl)c(Cl)c1)c1cc(F)nc(F)c1F [Example 1-19] |  | ≥ 80 |  | ≥ 80
9 | Cc1ccc(NC(=O)c2cc(F)nc(F)c2F)cc1Cl [Example 1-30] |  | ≥ 80 |  | ≥ 80
10 | O=C(Nc1cccc(Cl)c1)c1cc(F)nc(F)c1F [Example 1-32] |  | ≥ 80 | ≥ 80 | 
11 | CCOc1cccc(NC(=O)c2cc(F)nc(F)c2F)c1 [Example 1-38] |  |  |  | ≥ 80
12 | CC(C)Oc1cccc(NC(=O)c2cc(F)nc(F)c2F)c1 [Example 1-41] |  |  |  | ≥ 80
13 | COc1cccc(NC(=O)c2cc(F)nc(F)c2F)c1 [Example 1-44] |  | ≥ 80 |  | ≥ 80
14 | CC(C)Oc1ccc(NC(=O)c2cc(F)nc(F)c2F)cc1 [Example 1-59] |  | ≥ 80 |  | ≥ 80
15 | COC(=O)CNC(=O)c1cc(F)nc(F)c1F [Example 1-86] |  | ≥ 80 | ≥ 80 | 
16 | O=C(NC(=O)c1cc(F)nc(F)c1F)c1ccccc1 [Example 1-93] |  | ≥ 80 | ≥ 80 | 
17 | O=C(Nc1ccccc1)c1cc(F)nc(F)c1F [Example 1-98] |  | ≥ 80 | ≥ 80 | 
18 | CC(=O)Oc1ccccc1COC(=O)c1cc(F)nc(F)c1F [Example 1-102] |  | ≥ 80 | ≥ 80 | 
19 | COc1ccccc1OC(=O)c1cc(F)nc(F)c1F [Example 1-103] |  | ≥ 80 | ≥ 80 | 
20 | O=C(OCc1cccc(Cl)c1)c1cc(F)nc(F)c1F [Example 1-105] |  | ≥ 80 | ≥ 80 | 
21 | O=C(Oc1ccccc1)c1cc(F)nc(F)c1F [Example 1-129] |  |  | ≥ 80 | 
22 | COc1ccccc1NC(=O)c1cc(F)nc(F)c1 [Example 1-131] |  |  | ≥ 80 | 
23 | COc1cc(NC(=O)c2cc(F)nc(F)c2)cc(OC)c1 [Example 1-132] |  | ≥ 80 | ≥ 80 | 

Row | Structure (SMILES) | Ratio of plant length relative to untreated plant length (rice (cultivar: Jikkoku)) | pest or weed control at 10 µg/mL (Pyricularia oryzae [1]) [%] | pest or weed control at 200 ppm (Pyricularia oryzae [2]) [%] | pest or weed control at 25 ppm (Pyricularia oryzae [2]) [%]
24 | Cc1ccc(NC(=O)c2cc(F)nc(F)c2)cc1Cl [Example 1-133] |  | ≥ 80 | ≥ 80 | 
25 | CC(C)Oc1ccc(NC(=O)c2cc(F)nc(F)c2)cc1 [Example 1-137] |  | ≥ 80 | ≥ 80 | 
26 | COc1ccc(NC(=O)c2cc(F)nc(F)c2)cc1 [Example 1-138] |  |  | ≥ 80 | 
27 | O=C(Nc1ccc(C(F)(F)F)cc1)c1cc(F)nc(F)c1 [Example 1-139] |  | ≥ 80 | ≥ 80 | ≥ 80
28 | CCc1cccc(NC(=O)c2cc(F)nc(F)c2)c1 [Example 1-168] |  | ≥ 80 | ≥ 80 | ≥ 80
29 | CCc1ccccc1NC(=O)c1cc(F)nc(F)c1 [Example 1-169] |  | ≥ 80 | ≥ 80 | 
30 | Cc1ccc(NC(=O)c2cc(F)nc(F)c2)cc1 [Example 1-170] |  | ≥ 80 | ≥ 80 | 
31 | O=C(Nc1ccncc1)c1cc(F)nc(F)c1 [Example 1-172] |  |  | ≥ 80 | ≥ 80
32 | O=C(Nc1ccccc1[N+](=O)[O-])c1cc(F)nc(F)c1 [Example 1-173] |  | ≥ 80 | ≥ 80 | 
33 | O=C(OCc1ccc(Cl)nc1)c1cc(F)nc(F)c1 [Example 1-174] |  | ≥ 80 | ≥ 80 | ≥ 80
34 | O=C(Nc1cccc([N+](=O)[O-])c1)c1cc(F)nc(F)c1 [Example 1-175] |  | ≥ 80 | ≥ 80 | 
35 | O=C(Nc1ccc([N+](=O)[O-])cc1)c1cc(F)nc(F)c1 [Example 1-176] |  | ≥ 80 | ≥ 80 | 
36 | CC(C)c1ccccc1NC(=O)c1cc(F)nc(F)c1 [Example 1-177] |  |  | ≥ 80 | 
37 | CC(C)c1cccc(NC(=O)c2cc(F)nc(F)c2)c1 [Example 1-178] |  | ≥ 80 | ≥ 80 | 
38 | CC(C)c1ccc(NC(=O)c2cc(F)nc(F)c2)cc1 [Example 1-179] |  | ≥ 80 | ≥ 80 | 
39 | CCCCc1ccc(NC(=O)c2cc(F)nc(F)c2)cc1 [Example 1-180] |  | ≥ 80 | ≥ 80 | 
40 | O=C(OCc1ccccc1)c1cc(F)nc(F)c1 [Example 1-183] |  | ≥ 80 | ≥ 80 | 
41 | COc1cccc(OC(=O)c2cc(F)nc(F)c2)c1 [Example 1-187] |  | ≥ 80 | ≥ 80 | 
42 | COC(=O)c1cc(F)nc(F)c1 [Example 1-189] |  | ≥ 80 |  | 
43 | CC(=O)c1cccc(NC(=O)c2cc(F)nc(F)c2)c1 [Example 1-190] |  | ≥ 80 | ≥ 80 | 
44 | O=C(Nc1cccc(C(F)(F)F)c1)c1cc(F)nc(F)c1 [Example 1-191] |  | ≥ 80 | ≥ 80 | 
45 | CSc1cccc(NC(=O)c2cc(F)nc(F)c2)c1 [Example 1-192] |  | ≥ 80 |  | 
46 | O=C(Nc1cccc(O)c1)c1cc(F)nc(F)c1 [Example 1-193] |  | ≥ 80 | ≥ 80 | 

Row | Structure (SMILES) | Ratio of plant length relative to untreated plant length (rice (cultivar: Jikkoku)) | pest or weed control at 10 µg/mL (Pyricularia oryzae [1]) [%] | pest or weed control at 200 ppm (Pyricularia oryzae [2]) [%] | pest or weed control at 25 ppm (Pyricularia oryzae [2]) [%]
47 | O=C(Nc1nc2ccccc2s1)c1cc(F)nc(F)c1 [Example 1-194] |  | ≥ 80 |  | 
48 | COc1ccc(NC(=O)c2cc(F)nc(F)c2)cc1 [Example 1-200] |  | ≥ 80 |  | 
49 | O=C(Nc1ccc(F)cc1)c1cc(F)nc(F)c1 [Example 1-201] |  | ≥ 80 |  | 
50 | O=C(Oc1cccc2ccccc12)c1cc(F)nc(F)c1 [Example 1-202] |  | ≥ 80 | ≥ 80 | 
51 | O=C(Oc1ccc([N+](=O)[O-])cc1)c1cc(F)nc(F)c1 [Example 1-203] |  | ≥ 80 |  | 
52 | N#Cc1ccc(OC(=O)c2cc(F)nc(F)c2)cc1 [Example 1-204] |  | ≥ 80 | ≥ 80 | 
53 | O=C(OC1CCCCC1)c1cc(F)nc(F)c1 [Example 1-205] |  | ≥ 80 |  | 
54 | Cc1cccc(OC(=O)c2cc(F)nc(F)c2)c1 [Example 1-206] |  | ≥ 80 |  | 
55 | O=C(Oc1cccc(F)c1)c1cc(F)nc(F)c1 [Example 1-207] |  | ≥ 80 |  | 
56 | Cc1ccccc1OC(=O)c1cc(F)nc(F)c1 [Example 1-208] |  | ≥ 80 |  | 
57 | O=C(Oc1ccccc1Cl)c1cc(F)nc(F)c1 [Example 1-209] |  | ≥ 80 |  | 
58 | COc1ccccc1OC(=O)c1cc(F)nc(F)c1 [Example 1-210] |  | ≥ 80 | ≥ 80 | 
59 | O=C(Oc1ccccc1F)c1cc(F)nc(F)c1 [Example 1-211] |  | ≥ 80 |  | 
60 | CCCCCCOC(=O)c1cc(F)nc(F)c1 [Example 1-213] |  | ≥ 80 |  | 
61 | CCCCCCCCCCCCOC(=O)c1cc(F)nc(F)c1 [Example 1-214] |  | ≥ 80 |  | 
62 | O=C(Oc1ccccc1)c1cc(F)nc(F)c1 [Example 1-218] |  | ≥ 80 |  | 
63 | Cn1cccc1C(=O)c1cc(F)nc(F)c1F [Example 2-2] |  | ≥ 80 |  | 
64 | O=C(c1cc(F)nc(F)c1F)N1CCc2ccccc21 [Example 2-4] |  | ≥ 80 |  | 
65 | O=C1c2ccccc2S(=O)(=O)N1C(=O)c1cc(F)nc(F)c1F [Example 2-5] |  | ≥ 80 |  | 
66 | CC(=O)OCc1cc(F)nc(F)c1F [Example 3-1] |  | ≥ 80 |  | 
67 | Fc1cc(C2=NCCO2)c(F)c(F)n1 [Example 4-2] |  | ≥ 80 |  | 
68 | Fc1cc(C2=NCCCO2)c(F)c(F)n1 [Example 4-3] |  | ≥ 80 |  | 
69 | Fc1cc(C2=NCCO2)cc(F)n1 [Example 4-4] |  | ≥ 80 | ≥ 80 | 
